# Values of other authors, collected in patent publication US20070196901A1, “Kahalalide-producing bacteria” (priority 2003, published 2007).
# pEC50: −log10 of the molar value.
# Assays:
# [1] = test system: AIDS-opportunistic infection pathogens; conditions: against AIDS-opportunistic infection pathogens, compared with reference drugs
# HIV-1 = conditions: read-out: HIV-1 EC50; antiviral
substance,measurement,setting,value
kahalalide F [KF],efficacy in clinical trials against prostate cancer,prostate cancer,effective
same,antifungal activity,[1],comparable to the activity of the drugs Amphotericin B and Ketoconazole/Rifampin
same,pEC50,HIV-1,4.85
same,inhibition of M. tuberculosis,M. tuberculosis,moderately inhibitory
